Results as given in US9770481B2, “Inhibitors of NOX1” (UNIVERSITY OF PITTSBURGH—OF THE COMMONWEALTH SYSTEM OF …, priority 2011, dated 2017).
Ends that are not written are not given here.

Experiments:
[1] = tested on: Nox1-YFP; assay: Image cross correlation spectroscopy (ICCS) of R-NoxA1ds and Nox1-YFP; format: binding; conditions: ICCS, 100 images 0.05 s apart
Experimental: An ELISA of Nox1:NoxA1ds interaction was performed as follows. Neutravidin coated plates were incubated with biotin-tagged NoxA1ds (Biotin-NoxA1ds) or biotin-tagged SCRMB (Biotin-SCRMB) before addition of cell membranes prepared from cells transfected with Nox1 (Nox1 membrane) or transfected with an empty vector (COS22 membrane). Bound Nox1 was detected through a FITC conjugated secondary antibody (αRabbit Ab Sigma F9887) bound to the Nox1 primary antibody (rabbit αNox1 Ab (SC-25545, Santa Cruz Biotechnology)). FITC fluorescence was expressed as binding as % COS22 membranes on each experimental day. […] To further confirm the association, image cross correlation spectroscopy (ICCS) was used to determine patterns in signal fluctuation between rhodamine-labeled NoxA1ds (R-NoxA1ds) and Nox1-YFP though a sequence of 100 images 0.05 s apart. Correlation and cross-correlation was calculated using an ImageJ plugin.

[2] = target: T1, interaction between Nox1 and NoxA1 (Homo sapiens, UniProt Q9Y5S8); assay: FRET between Nox1-YFP and NoxA1-CFP in transfected COS22 cells; format: cell-based; conditions: 10 μM, one hour prior to imaging
T1 construct: expressed in transfected cells; host or cells: COS22
T1 sequence (Q9Y5S8 1-564): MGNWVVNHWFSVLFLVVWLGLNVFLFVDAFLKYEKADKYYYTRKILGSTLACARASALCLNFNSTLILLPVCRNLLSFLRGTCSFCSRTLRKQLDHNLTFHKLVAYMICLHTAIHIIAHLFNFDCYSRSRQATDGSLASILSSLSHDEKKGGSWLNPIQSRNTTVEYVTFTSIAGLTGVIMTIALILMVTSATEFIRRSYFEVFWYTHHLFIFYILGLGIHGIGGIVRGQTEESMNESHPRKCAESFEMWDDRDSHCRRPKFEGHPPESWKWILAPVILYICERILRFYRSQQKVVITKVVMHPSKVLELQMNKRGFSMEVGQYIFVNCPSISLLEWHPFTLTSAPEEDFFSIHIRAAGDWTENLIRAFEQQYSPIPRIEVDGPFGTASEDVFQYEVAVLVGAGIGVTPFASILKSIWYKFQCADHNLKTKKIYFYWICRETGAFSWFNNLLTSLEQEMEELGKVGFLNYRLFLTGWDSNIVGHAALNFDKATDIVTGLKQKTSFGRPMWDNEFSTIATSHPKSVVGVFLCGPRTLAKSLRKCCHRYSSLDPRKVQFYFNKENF
T1 sequence (P13498 2-195 partner limits assumed): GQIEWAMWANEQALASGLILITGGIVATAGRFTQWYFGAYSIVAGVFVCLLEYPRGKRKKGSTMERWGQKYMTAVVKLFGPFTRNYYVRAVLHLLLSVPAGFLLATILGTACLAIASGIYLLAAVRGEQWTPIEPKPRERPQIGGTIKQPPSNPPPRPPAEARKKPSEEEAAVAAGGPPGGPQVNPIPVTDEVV
Experimental: FRET (fluorescence resonance energy transfer) studies were performed to study the effect of NoxA1ds on the interaction between Nox1 and NoxA1: In particular, FRET between Nox1-YFP and NoxA1-CFP transfected COS22 cells in the presence or absence of 10 μM NoxA1ds or SCRMB was evaluated. Relative fluorescence of CFP is green while YFP is red. Traces underneath the images indicate fluorescent intensities of CFP and YFP underneath the arrow overlaid on each cell.

[3] = tested on: rat aortic smooth muscle cells; assay: Calponin and osteopontin expression in stretched rat aortic smooth muscle cells (Western blot); format: cell-based; conditions: 10 μM added every four hours; cyclic stretch 24 hrs
Experimental: The effect of Nox1 inhibition on the expression of certain protein markers of rat aortic smooth muscle cell contractile vs. synthetic phenotypes was evaluated. Cells were subjected to 24 hrs of cyclic stretch (10%, 1 Hz) with 10 μM NoxA1ds or SCRMB control being added every four hours. […] Calponin expression during stretch was rescued by the addition of 10 μM NoxA1ds, yet was unaffected by the addition of 10 μM scrambled peptide (SCRMB). A representative Western blot is shown below the graph (FIG. 9B). Osteopontin (OPN, a marker of the […] phenotype), expression increased after 24 hrs of stretch.

[4] = tested on: human pulmonary artery endothelial cells; assay: Hypoxia-induced superoxide production by human pulmonary artery endothelial cells; format: cell-based
Experimental: Experiments were also performed to evaluate the effect of NoxA1ds on hypoxia-induced superoxide production by human pulmonary artery endothelial cells.

[5] = target: T2, Nox1 (Homo sapiens, UniProt Q9Y5S8); assay: O2- production by COS22 cells transfected with Nox1 (cytochrome c reduction); format: cell-based; conditions: increasing concentrations
T2 construct: expressed in transfected cells; host or cells: COS22 (monkey kidney COS cells stably expressing human p22phox)
T2 sequence (Q9Y5S8 1-564): T1 sequence (Q9Y5S8 1-564)
T2 sequence (P13498 1-195 partner): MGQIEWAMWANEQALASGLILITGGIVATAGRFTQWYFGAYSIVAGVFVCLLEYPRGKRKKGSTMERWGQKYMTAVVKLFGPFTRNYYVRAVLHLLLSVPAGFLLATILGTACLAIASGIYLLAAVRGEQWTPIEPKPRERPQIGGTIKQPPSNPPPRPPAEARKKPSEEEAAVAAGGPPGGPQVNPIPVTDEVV
Experimental: Experiments were performed to test the effect of NoxA1ds on O2^− production by Nox1. COS22 is a monkey kidney COST cell line expressing transgenic human p22phox and was produced by stable transfection of the full-length p22phox cDNA into parental COST wild-type cells. COS22 cells were transfected with Nox1 to express the Nox1 enzyme and were then treated with either NoxA1ds or its scrambled control (SCRMB). Production of O2^− was calculated by monitoring the reduction of cytochrome c for 15 minutes post NADPH addition and subtracting baseline cytochrome c reduction occurring in the presence of SOD.

[6] = tested on: HT-29 colon adenocarcinoma cells; assay: O2- production by HT-29 cells (SOD inhibitable reduction of cytochrome c); format: cell-based; conditions: increasing doses

Substance | Fractional binding of Nox1-YFP and R-NoxA1ds [1] | CFP fluorescence after photobleaching of Nox1-YFP (FRET) [2] | Calponin expression during stretch [3] | Osteopontin (OPN) expression during stretch [3] | O2- production under hypoxia ([4]; hypoxia 1.0% O2, 24 hrs) | O2- production under normoxic conditions ([4]; normoxia) | Inhibition of Nox1-derived O2- production [5] | Inhibition of O2- production by HT-29 cells [6]
R-NoxA1ds: rhodamine-labeled NoxA1ds (EPVDALGKAKV-NH2; also: rhodamine label, position not given here) | ~1.0 |  |  |  |  |  |  | 
SCRMB: inactive, scrambled version of NoxA1ds (negative control) (H-LVKGPDAEKVA-NH2) [reference compound] |  | resulted in a concomitant increase in CFP fluorescence | unaffected | unaffected | unaffected | negligible effect | did not inhibit | did not inhibit
